Test results: publication PMC8583996, “Berberine Inhibits MDA-MB-231 Cells as an Agonist of G Protein-Coupled Estrogen Receptor 1” (International Journal of Molecular Sciences, 2021)

Target: T1, human GPER1 (Homo sapiens, UniProt Q99527)
T1 construct: Sf9 baculovirus; Ni-NTA (tag not described) and size exclusion; DDM/CHS; primarily monomer
Assay: intrinsic fluorescence quenching titration
Assay type: binding

T1 sequence (Q99527 whole entry): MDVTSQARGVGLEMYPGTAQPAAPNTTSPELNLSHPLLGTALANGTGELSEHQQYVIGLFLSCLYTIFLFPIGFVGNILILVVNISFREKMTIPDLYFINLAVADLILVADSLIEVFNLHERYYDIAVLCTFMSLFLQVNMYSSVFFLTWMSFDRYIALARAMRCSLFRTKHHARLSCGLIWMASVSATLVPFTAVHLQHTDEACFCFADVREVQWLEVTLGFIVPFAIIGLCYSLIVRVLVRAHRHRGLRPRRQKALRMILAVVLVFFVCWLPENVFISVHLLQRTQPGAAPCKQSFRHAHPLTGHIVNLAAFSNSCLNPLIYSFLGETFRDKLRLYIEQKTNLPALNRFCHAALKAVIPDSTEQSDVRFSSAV

A Kd of 0.89 nM was found for `COc1ccc2cc3[n+](cc2c1OC)CCc1cc2c(cc1-3)OCO2` [BBR] in this work.
